Columns and labels:
HEK293 cells [1] = experiment: Preliminary screening as DNA vectors, GFP transfection of HEK293 cells; format: cell-based; settings: HEK293 cells; lipid/DOPE liposome with 75 ng plasmid DNA (psin-EGFP-IRES-Puro); number of cells expressing GFP divided by total number of nuclei (Hoechst)
Summary of the method: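 HEK293 cells in DMEM/10% FBS transfected with 75 ng EGFP plasmid per well complexed with amino lipid/DOPE liposomes in pH 5.6 sodium acetate. Hoechst nuclear stain added 20-24 h post-transfection, then cells cultured another 20-24 h. Confocal imaging gives GFP-positive cells as % of total nuclei.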

HEK293 cells [2] = experiment: Preliminary screening as mRNA vectors, EGFP mRNA transfection of HEK293 cells; format: cell-based; settings: HEK293 cells, 96-well plates, EGFP mRNA 50 ng per well; percentage of GFP fluorescent cells relative to total number of cells (Hoechst)
Summary of the method: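 HEK293 cells in DMEM plus 10% FBS transfected in 96-well format with 50 ng EGFP mRNA per well; Lipofectamine2000 served as positive control. Read-out is the percentage of GFP-fluorescent cells among total cells, counted by Hoechst nuclear stain.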

Row | Compound | Absolute DNA transfection efficiency in HEK293 cells (HEK293 cells [1]) [%] | Absolute mRNA transfection efficiency in HEK293 cells (HEK293 cells [2]) [%]
1 | CCCCCCCCCCCCCCCCCCSc1nc(NCCN2CCN(C)CC2)nc(SCCCCCCCCC)n1 [Compound S9S18D5] | 4.0 | 22.0
2 | CCCCCCCCCCCCCCCCCCSc1nc(NCCCN(C)C)nc(SCCCCCCCCC)n1 [Compound S9S18D6] | 1.7 | 11.6
3 | CCCCCCCCCCCCCCCCCCSc1nc(NCCN(CC)CC)nc(SCCCCCCCCC)n1 [Compound S9S18D7] | 11.8 | 1.9
4 | CCCCCCCCCCCCCCCCCCSc1nc(NCCCN2CCOCC2)nc(SCCCCCCCCC)n1 [Compound S9S18D8] | 27.0 | 12.4
5 | CCCCCCCCCCCCCCCCCCSc1nc(NCCCN2CCN(C)CC2)nc(SCCCCCCCCC)n1 [Compound S9S18D9] | 0.0 | 4.0
6 | CCCCCCCCCCCCCCCCCCSc1nc(NCC2CCN(C)CC2)nc(SCCCCCCCCC)n1 [Compound S9S18D10] | 7.0 | 43.6
7 | CCCCCCCCCCSc1nc(NCCN(C)C)nc(SCCCCCCCCCC)n1 [Compound S10S10D1] | 7.8 | 0.7
8 | CCCCCCCCCCSc1nc(NCCN2CCOCC2)nc(SCCCCCCCCCC)n1 [Compound S10S10D2] | 4.0 | 0.4
9 | CCCCCCCCCCSc1nc(NCCN2CCCC2)nc(SCCCCCCCCCC)n1 [Compound S10S10D3] | 13.6 | 5.0
10 | CCCCCCCCCCSc1nc(NCCN2CCCCC2)nc(SCCCCCCCCCC)n1 [Compound S10S10D4] | 5.5 | 2.5
11 | CCCCCCCCCCSc1nc(NCCN2CCN(C)CC2)nc(SCCCCCCCCCC)n1 [Compound S10S10D5] | 14.7 | 45.9
12 | CCCCCCCCCCSc1nc(NCCCN(C)C)nc(SCCCCCCCCCC)n1 [Compound S10S10D6] | 23.6 | 59.1
13 | CCCCCCCCCCSc1nc(NCCN(CC)CC)nc(SCCCCCCCCCC)n1 [Compound S10S10D7] | 7.2 | 2.0
14 | CCCCCCCCCCSc1nc(NCCCN2CCOCC2)nc(SCCCCCCCCCC)n1 [Compound S10S10D8] | 14.0 | 13.8
15 | CCCCCCCCCCSc1nc(NCCCN2CCN(C)CC2)nc(SCCCCCCCCCC)n1 [Compound S10S10D9] | 13.4 | 51.3
16 | CCCCCCCCCCSc1nc(NCC2CCN(C)CC2)nc(SCCCCCCCCCC)n1 [Compound S10S10D10] | 18.8 | 87.1
17 | CCCCCCCCCCCSc1nc(NCCN(C)C)nc(SCCCCCCCCCC)n1 [Compound S10S11D1] | 7.0 | 1.2
18 | CCCCCCCCCCCSc1nc(NCCN2CCOCC2)nc(SCCCCCCCCCC)n1 [Compound S10S11D2] | 2.2 | 0.6
19 | CCCCCCCCCCCSc1nc(NCCN2CCCC2)nc(SCCCCCCCCCC)n1 [Compound S10S11D3] | 6.8 | 4.4
20 | CCCCCCCCCCCSc1nc(NCCN2CCCCC2)nc(SCCCCCCCCCC)n1 [Compound S10S11D4] | 16.7 | 0.0
21 | CCCCCCCCCCCSc1nc(NCCN2CCN(C)CC2)nc(SCCCCCCCCCC)n1 [Compound S10S11D5] | 8.4 | 61.1
22 | CCCCCCCCCCCSc1nc(NCCCN(C)C)nc(SCCCCCCCCCC)n1 [Compound S10S11D6] | 8.2 | 83.8
23 | CCCCCCCCCCCSc1nc(NCCN(CC)CC)nc(SCCCCCCCCCC)n1 [Compound S10S11D7] | 7.3 | 1.8
24 | CCCCCCCCCCCSc1nc(NCCCN2CCOCC2)nc(SCCCCCCCCCC)n1 [Compound S10S11D8] | 16.4 | 8.3

Row | Compound | Absolute DNA transfection efficiency in HEK293 cells (HEK293 cells [1]) [%] | Absolute mRNA transfection efficiency in HEK293 cells (HEK293 cells [2]) [%]
25 | CCCCCCCCCCCSc1nc(NCCCN2CCN(C)CC2)nc(SCCCCCCCCCC)n1 [Compound S10S11D9] | 13.6 | 60.6
26 | CCCCCCCCCCCSc1nc(NCC2CCN(C)CC2)nc(SCCCCCCCCCC)n1 [Compound S10S11D10] | 13.3 | 93.7
27 | CCCCCCCCCCCCSc1nc(NCCN(C)C)nc(SCCCCCCCCCC)n1 [Compound S10S12D1] | 6.6 | 0.0
28 | CCCCCCCCCCCCSc1nc(NCCN2CCOCC2)nc(SCCCCCCCCCC)n1 [Compound S10S12D2] | 2.4 | 0.0
29 | CCCCCCCCCCCCSc1nc(NCCN2CCCC2)nc(SCCCCCCCCCC)n1 [Compound S10S12D3] | 8.2 | 7.6
30 | CCCCCCCCCCCCSc1nc(NCCN2CCCCC2)nc(SCCCCCCCCCC)n1 [Compound S10S12D4] | 12.0 | 3.4
31 | CCCCCCCCCCCCSc1nc(NCCN2CCN(C)CC2)nc(SCCCCCCCCCC)n1 [Compound S10S12D5] | 9.8 | 33.5
32 | CCCCCCCCCCCCSc1nc(NCCCN(C)C)nc(SCCCCCCCCCC)n1 [Compound S10S12D6] | 16.2 | 82.4
33 | CCCCCCCCCCCCSc1nc(NCCN(CC)CC)nc(SCCCCCCCCCC)n1 [Compound S10S12D7] | 7.2 | 0.0
34 | CCCCCCCCCCCCSc1nc(NCCCN2CCOCC2)nc(SCCCCCCCCCC)n1 [Compound S10S12D8] | 20.9 | 5.4
35 | CCCCCCCCCCCCSc1nc(NCCCN2CCN(C)CC2)nc(SCCCCCCCCCC)n1 [Compound S10S12D9] | 28.1 | 53.7
36 | CCCCCCCCCCCCSc1nc(NCC2CCN(C)CC2)nc(SCCCCCCCCCC)n1 [Compound S10S12D10] | 13.7 | 91.0
37 | CCCCCCCCCCCCCCSc1nc(NCCN(C)C)nc(SCCCCCCCCCC)n1 [Compound S10S14D1] | 8.5 | 0.1
38 | CCCCCCCCCCCCCCSc1nc(NCCN2CCOCC2)nc(SCCCCCCCCCC)n1 [Compound S10S14D2] | 1.5 | 0.2
39 | CCCCCCCCCCCCCCSc1nc(NCCN2CCCC2)nc(SCCCCCCCCCC)n1 [Compound S10S14D3] | 7.9 | 0.6
40 | CCCCCCCCCCCCCCSc1nc(NCCN2CCCCC2)nc(SCCCCCCCCCC)n1 [Compound S10S14D4] | 5.9 | 0.2
41 | CCCCCCCCCCCCCCSc1nc(NCCN2CCN(C)CC2)nc(SCCCCCCCCCC)n1 [Compound S10S14D5] | 15.7 | 12.9
42 | CCCCCCCCCCCCCCSc1nc(NCCCN(C)C)nc(SCCCCCCCCCC)n1 [Compound S10S14D6] | 26.9 | 48.6
43 | CCCCCCCCCCCCCCSc1nc(NCCN(CC)CC)nc(SCCCCCCCCCC)n1 [Compound S10S14D7] | 2.6 | 1.3
44 | CCCCCCCCCCCCCCSc1nc(NCCCN2CCOCC2)nc(SCCCCCCCCCC)n1 [Compound S10S14D8] | 18.9 | 7.5
45 | CCCCCCCCCCCCCCSc1nc(NCCCN2CCN(C)CC2)nc(SCCCCCCCCCC)n1 [Compound S10S14D9] | 3.9 | 5.7
46 | CCCCCCCCCCCCCCSc1nc(NCC2CCN(C)CC2)nc(SCCCCCCCCCC)n1 [Compound S10S14D10] | 23.0 | 37.7
47 | CCCCCCCCCCCCCCCSc1nc(NCCN(C)C)nc(SCCCCCCCCCC)n1 [Compound S10S15D1] | 6.8 | 0.0
48 | CCCCCCCCCCCCCCCSc1nc(NCCN2CCOCC2)nc(SCCCCCCCCCC)n1 [Compound S10S15D2] | 7.7 | 0.7

Source: US20230123334A1, “AMINO LIPID COMPOUND, PREPARATION METHOD THEREFOR, AND APPLICATION THEREOF” (SHENZHEN SHENXIN BIOTECHNOLOGY CO., LTD., priority 2020, published 2023)
